According to ChEMBL document CHEMBL4334498, “Structures, NMR Spectroscopic Features, and Cytotoxic Properties of Oligomeric Hellinoyl (m-GO-m-GOG)-Type Ellagitannins from the Galls of Tamarix aphylla” (J Nat Prod, 2019):

Assays:
[1] = Cytotoxicity against human HPLF cells assessed as reduction in cell viability incubated for 48 hrs by MTT assay; assay type: cell-based
[2] = Cytotoxicity against human HGF cells assessed as reduction in cell viability incubated for 48 hrs by MTT assay; assay type: cell-based
HSC-2 = test: Cytotoxicity against human HSC2 cells assessed as reduction in cell viability incubated for 48 hrs by MTT assay; assay type: functional; details: HSC-2, 48 h
Ca9-22 = test: Cytotoxicity against human Ca9-22 cells assessed as reduction in cell viability incubated for 48 hrs by MTT assay; assay type: functional; details: Ca9-22, 48 h
[3] = Cytotoxicity against human Pulp Cell cells assessed as reduction in cell viability incubated for 48 hrs by MTT assay; assay type: cell-based
HSC-4 = test: Cytotoxicity against human HSC4 cells assessed as reduction in cell viability incubated for 48 hrs by MTT assay; assay type: functional; details: HSC-4, 48 h

Structure (SMILES)	CC50 at 48 h [1]	CC50 at 48 h [2]	CC50 (HSC-2)	CC50 (Ca9-22)	CC50 at 48 h [3]	CC50 (HSC-4)
O=c1[nH]cc(F)c(=O)[nH]1 [FLUOROURACIL]	> 1000 µM	> 1000 µM	47 µM	262 µM	> 1000 µM	25 µM
O=C(O[C@@H]1O[C@@H]2COC(=O)c3cc(O)c(O)c(O)c3-c3c(cc(O)c(O)c3O)C(=O)O[C@H]2[C@H](OC(=O)c2cc(O)c(O)c(O)c2)[C@H]1OC(=O)c1cc(O)c(O)c(O)c1Oc1cc2c(c(O)c1O)Oc1cc(cc(O)c1O)C(=O)O[C@@H]1O[C@@H]3COC(=O)c4cc(O)c(O)c(O)c4-c4c(cc(O)c(O)c4O)C(=O)O[C@H]3[C@H](OC(=O)c3cc(O)c(O)c(O)c3)[C@H]1OC2=O)c1cc(O)c(O)c(Oc2c(C(=O)O[C@H]3C(O)O[C@@H]4COC(=O)c5cc(O)c(O)c(O)c5-c5c(cc(O)c(O)c5O)C(=O)O[C@H]4[C@@H]3OC(=O)c3cc(O)c(O)c(O)c3)cc(O)c(O)c2O)c1 (stereo not given in full)	> 75 µM	> 75 µM	23 µM	27 µM	> 75 µM	26 µM
O=C(O)c1cc(O)c(O)c(Oc2c(C(=O)O)cc(Oc3c(C(=O)O)cc(O)c(O)c3O)c(O)c2O)c1	> 395 µM	> 395 µM	246 µM	345 µM	> 395 µM	153 µM
O=C(O[C@@H]1O[C@@H]2COC(=O)c3cc(O)c(O)c(O)c3-c3c(cc(O)c(O)c3O)C(=O)O[C@H]2[C@H](OC(=O)c2cc(O)c(O)c(O)c2)[C@H]1OC(=O)c1cc(O)c(O)c(O)c1Oc1cc(C(=O)O[C@@H]2O[C@@H]3COC(=O)c4cc(O)c(O)c(O)c4-c4c(cc(O)c(O)c4O)C(=O)O[C@H]3[C@H](OC(=O)c3cc(O)c(O)c(O)c3)[C@H]2OC(=O)c2cc(O)c(O)c(O)c2Oc2cc3c(c(O)c2O)Oc2cc(cc(O)c2O)C(=O)O[C@@H]2O[C@@H]4COC(=O)c5cc(O)c(O)c(O)c5-c5c(cc(O)c(O)c5O)C(=O)O[C@H]4[C@H](OC(=O)c4cc(O)c(O)c(O)c4)[C@H]2OC3=O)cc(O)c1O)c1cc(O)c(O)c(Oc2c(C(=O)O[C@H]3C(O)O[C@@H]4COC(=O)c5cc(O)c(O)c(O)c5-c5c(cc(O)c(O)c5O)C(=O)O[C@H]4[C@@H]3OC(=O)c3cc(O)c(O)c(O)c3)cc(O)c(O)c2O)c1 (stereo not given in full)	> 56 µM	> 56 µM	25 µM	35 µM	> 56 µM	24 µM
COc1cccc2c1C(=O)c1c(O)c3c(c(O)c1C2=O)C[C@@](O)(C(=O)CO)C[C@@H]3O[C@H]1C[C@H](N)[C@H](O)[C@H](C)O1 [DOXORUBICIN]	> 10 µM	> 10 µM	–	0.7 µM	> 10 µM	0.1 µM
O=C(OC[C@H]1O[C@H]2OC(=O)c3cc(O)c(O)c(c3)Oc3c(cc(Oc4c(C(=O)O[C@H]5[C@H](OC(=O)c6cc(O)c(O)c(O)c6)O[C@@H]6COC(=O)c7cc(O)c(O)c(O)c7-c7c(cc(O)c(O)c7O)C(=O)O[C@H]6[C@@H]5OC(=O)c5cc(O)c(O)c(O)c5)cc(O)c(O)c4O)c(O)c3O)C(=O)O[C@@H]2[C@@H](OC(=O)c2cc(O)c(O)c(O)c2)[C@@H]1O)c1cc(O)c(O)c(O)c1	> 116 µM	> 116 µM	21 µM	25 µM	> 116 µM	21 µM
